Source: patent US10570122B2, “Compounds with anti-tumoral activity” (AB Science, priority 2015, dated 2020)

What was measured:
PLCPRF5 = test: CellTiter-Blue cell-based survival/proliferation assay, PLCPRF5; settings: Homo sapiens, PLC-PRF-5; PLC_PRF5 liver tumor cell line, 48 h
Method: (§1) Cell-Based Proliferation Screening of Compounds
(§2) CellTiter-Blue cell-based survival/proliferation assay (Promega G8080) was performed on tumor cell lines. A total of 1·10^4 cells/well/50 μl were seeded in a 96-wells plate. Treatment was initiated by addition of a 2× drug solution of 1/10 serial dilutions ranging from 0 to 10 μM. Cells were grown for 48 h at 37° C. and then incubated with 10 μl/well of Promega CellTiter-Bleue reagent for 4 h at 37° C. The amount of resorufin dye formed was quantified by its fluorescence emission at 590 nm using a scanning multiwell spectrophotometer (OPTIMA, BMG labtech, France). A blank well without cells was used as a background control for the spectrophotometer.

PANC1 = test: CellTiter-Blue cell-based survival/proliferation assay, PANC1; settings: Homo sapiens, PANC-1; PANC_1 pancreas tumor cell line, 48 h
Method: as §1, §2

MDAMB231 = test: CellTiter-Blue cell-based survival/proliferation assay, MDAMB231; settings: Homo sapiens, MDA-MB-231; MDAMB231 breast tumor cell line, 48 h
Method: as §1, §2

CLS354 = test: CellTiter-Blue cell-based survival/proliferation assay, CLS354; settings: Homo sapiens, CLS-354; CLS354_4 head & neck tumor cell line, 48 h
Method: as §1, §2

DU145 = test: CellTiter-Blue cell-based survival/proliferation assay, DU145; settings: Homo sapiens, DU-145; DU145 prostate tumor cell line, 48 h
Method: as §1, §2

AGS = test: CellTiter-Blue cell-based survival/proliferation assay, AGS; settings: Homo sapiens; AGS stomach tumor cell line, 48 h
Method: as §1, §2

DLD1 = test: CellTiter-Blue cell-based survival/proliferation assay, DLD1; settings: Homo sapiens, DLD-1; DLD_1 colorectal tumor cell line, 48 h
Method: as §1, §2

PC3 = test: CellTiter-Blue cell-based survival/proliferation assay, PC3; settings: Homo sapiens, PC-3; PC3 prostate tumor cell line, 48 h
Method: as §1, §2

OPM2 = test: CellTiter-Blue cell-based survival/proliferation assay, OPM2; settings: Homo sapiens, OPM-2, Myeloma cell line OPM2, 48 h, read-out: Anti-tumoral activity (measured IC50) OPM2
Method: as §1, §2

BXPC3 = test: CellTiter-Blue cell-based survival/proliferation assay, BXPC3; settings: Homo sapiens, BXPC-3; BXPC3 pancreas tumor cell line, 48 h
Method: as §1, §2

[1] = test system: panel of about 34 human tumor cell lines; test: Cell-based proliferation screening on panel of tumor cell lines; settings: solid tumor cell line, cell line unknown, 48 h, read-out: IC50, solid tumor cell line of column 6 (last section of Table 3)
Method: Compounds of formula (I) were tested against a panel of about 34 human tumor cell lines representing 17 cancer type, namely leukemia (represented by 1 cell line), lymphoma (4 cell lines), myeloma (1 cell line), colorectal (2 cell lines), head and neck (3 cell lines), lung (3 cell lines), melanoma (2 cell lines), pancreas (2 cell lines), prostate (2 cell lines), ovary (2 cell lines) breast (2 cell lines), kidney (2 cell lines), stomach (2 cell lines), liver (2 cell lines), glioblastoma (2 cell lines), osteosarcoma (1 cell line), Ewing Sarcoma (1 cell line).
as §1, §2

H1299 = test: CellTiter-Blue cell-based survival/proliferation assay, H1299; settings: Homo sapiens, NCI-H1299; H1299 lung tumor cell line, 48 h
Method: as §1, §2

HL60 = test: CellTiter-Blue cell-based survival/proliferation assay, HL60; settings: Homo sapiens, HL-60, Leukemia cell line HL60, 48 h, read-out: Anti-tumoral activity (measured IC50) HL60
Method: as §1, §2

TOV112D = test: CellTiter-Blue cell-based survival/proliferation assay, TOV112D; settings: Homo sapiens; TOV112D ovary tumor cell line, 48 h
Method: as §1, §2

HEPG2 = test: CellTiter-Blue cell-based survival/proliferation assay, HEPG2; settings: Homo sapiens; HEPG2 liver tumor cell line, 48 h
Method: as §1, §2

BT20 = test: CellTiter-Blue cell-based survival/proliferation assay, BT20; settings: Homo sapiens, BT-20; BT20 breast tumor cell line, 48 h
Method: as §1, §2

CALU6 = test: CellTiter-Blue cell-based survival/proliferation assay, CALU6; settings: Homo sapiens, Calu-6; CALU6 lung tumor cell line, 48 h
Method: as §1, §2

MESSA = test: CellTiter-Blue cell-based survival/proliferation assay, MESSA; settings: Homo sapiens, MES-SA; MESSA ovary tumor cell line, 48 h
Method: as §1, §2

A498 = test: CellTiter-Blue cell-based survival/proliferation assay, A498; settings: Homo sapiens; A498 kidney tumor cell line, 48 h
Method: as §1, §2

ACHN = test: CellTiter-Blue cell-based survival/proliferation assay, ACHN; settings: Homo sapiens; ACHN kidney tumor cell line, 48 h
Method: as §1, §2

A549 = test: CellTiter-Blue cell-based survival/proliferation assay, A549; settings: Homo sapiens; A549 lung tumor cell line, 48 h
Method: as §1, §2

HCT116 = test: CellTiter-Blue cell-based survival/proliferation assay, HCT116; settings: Homo sapiens, HCT-116; HCT116 colorectal tumor cell line, 48 h
Method: as §1, §2

HGC27 = test: CellTiter-Blue cell-based survival/proliferation assay, HGC27; settings: Homo sapiens, HGC-27; HGC27 stomach tumor cell line, 48 h
Method: as §1, §2

HEP2 = test: CellTiter-Blue cell-based survival/proliferation assay, HEP2; settings: Homo sapiens, HEp-2; HEP2 head & neck tumor cell line, 48 h
Method: as §1, §2

SW579 = test: CellTiter-Blue cell-based survival/proliferation assay, SW579; settings: Homo sapiens; SW579 head & neck tumor cell line, 48 h
Method: as §1, §2

SMILES | IC50 (PLCPRF5) | IC50 (PANC1) | IC50 (MDAMB231) | IC50 (CLS354) | IC50 (DU145) | IC50 (AGS) | IC50 (DLD1) | IC50 (PC3) | IC50 (OPM2) | IC50 (BXPC3) | IC50 [1] | IC50 (H1299) | IC50 (HL60) | IC50 (TOV112D) | IC50 (HEPG2) | IC50 (BT20) | IC50 (CALU6) | IC50 (MESSA) | IC50 (A498) | IC50 (ACHN) | other results
CCOCc1ccc(C)c(Nc2ncc(-c3ccc(-n4nccc4C)cc3)o2)c1 [Example 041, (5-Ethoxymethyl-2-methyl-phenyl)-{5-[4-(5-methyl-pyrazol-1-yl)-phenyl]-oxazol-2-yl}-amine] | > 1000 nM | > 1000 nM | > 1000 nM | > 1000 nM | > 1000 nM | > 1000 nM | > 1000 nM | > 1000 nM | 500 to 1000 nM | > 1000 nM | 100 to 500 nM | > 1000 nM | 500 to 1000 nM | 100 to 500 nM | > 1000 nM | > 1000 nM | > 1000 nM | > 1000 nM | > 1000 nM | > 1000 nM | IC50 (A549): > 1000 nM; IC50 (HCT116): > 1000 nM; IC50 (HGC27): > 1000 nM; IC50 (HEP2): > 1000 nM; IC50 (SW579): > 1000 nM
CCOCc1ccc(C)c(Nc2ncc(-c3ccc(-n4nc[nH]c4=O)cc3)o2)c1 [Example 043, 2-{4-[2-(5-Ethoxymethyl-(2-methyl-phenylamino))-oxazol-5-yl]-phenyl}-2,4-dihydro-[1,2,4]triazol-3-one] | > 1000 nM | > 1000 nM | > 1000 nM | > 1000 nM | > 1000 nM | > 1000 nM | > 1000 nM | > 1000 nM | 500 to 1000 nM | > 1000 nM | 100 to 500 nM | > 1000 nM | 500 to 1000 nM | 100 to 500 nM | > 1000 nM | > 1000 nM | > 1000 nM | > 1000 nM | > 1000 nM | > 1000 nM | IC50 (A549): > 1000 nM; IC50 (HCT116): > 1000 nM; IC50 (HGC27): > 1000 nM; IC50 (HEP2): > 1000 nM; IC50 (SW579): > 1000 nM
CCOCc1ccc(C)c(Nc2ncc(-c3ccc(N4C(=O)NC[C@H]4C)cc3)o2)c1 [Example 051, (R)-1-(4-(2-((5-(ethoxymethyl)-2-methylphenyl)amino)oxazol-5-yl)phenyl)-5-methylimidazolidin-2-one] | > 1000 nM | > 1000 nM | > 1000 nM | ≤ 100 nM | > 1000 nM | > 1000 nM | > 1000 nM | ≤ 100 nM | ≤ 100 nM | > 1000 nM | 100 to 500 nM | > 1000 nM | ≤ 100 nM | ≤ 100 nM | > 1000 nM | > 1000 nM | > 1000 nM | > 1000 nM | > 1000 nM | > 1000 nM | IC50 (A549): > 1000 nM; IC50 (HCT116): > 1000 nM; IC50 (HGC27): > 1000 nM; IC50 (HEP2): 100 to 500 nM; IC50 (SW579): > 1000 nM
CCOCc1ccc(C)c(Nc2ncc(-c3ccc(-n4c(C)n[nH]c4=O)cc3)o2)c1 [Example 052, 4-(4-(2-((5-(ethoxymethyl)-2-methylphenyl)amino)oxazol-5-yl)phenyl)-5-methyl-2,4-dihydro-3H-1,2,4-triazol-3-one] | > 1000 nM | > 1000 nM | > 1000 nM | > 1000 nM | > 1000 nM | > 1000 nM | > 1000 nM | > 1000 nM | > 1000 nM | > 1000 nM | > 1000 nM | > 1000 nM | > 1000 nM | > 1000 nM | > 1000 nM | > 1000 nM | > 1000 nM | > 1000 nM | > 1000 nM | > 1000 nM | IC50 (A549): > 1000 nM; IC50 (HCT116): > 1000 nM; IC50 (HGC27): > 1000 nM; IC50 (HEP2): > 1000 nM; IC50 (SW579): > 1000 nM
CCOCc1cc(COCC)cc(Nc2ncc(-c3ccc(N4CCNC4=O)cc3)o2)c1 [Example 053, 1-(4-(2-((3,5-bis(ethoxymethyl)phenyl)amino)oxazol-5-yl)phenyl)imidazolidin-2-one] | > 1000 nM | > 1000 nM | > 1000 nM | ≤ 100 nM | > 1000 nM | 100 to 500 nM | > 1000 nM | ≤ 100 nM | ≤ 100 nM | > 1000 nM | ≤ 100 nM | > 1000 nM | ≤ 100 nM | > 1000 nM | > 1000 nM | > 1000 nM | > 1000 nM | ≤ 100 nM | > 1000 nM | > 1000 nM | IC50 (A549): > 1000 nM; IC50 (HCT116): ≤ 100 nM; IC50 (HGC27): 100 to 500 nM; IC50 (HEP2): ≤ 100 nM; IC50 (SW579): > 1000 nM
CCOCc1ccc(C)c(Nc2ncc(-c3ccc(N4CCN(CCOC)C4=O)cc3)o2)c1 [Example 054, 1-(4-(2-((5-(ethoxymethyl)-2-methylphenyl)amino)oxazol-5-yl)phenyl)-3-(2-methoxyethyl)imidazolidin-2-one] | > 1000 nM | > 1000 nM | > 1000 nM | > 1000 nM | > 1000 nM | > 1000 nM | > 1000 nM | > 1000 nM | > 1000 nM | > 1000 nM | > 1000 nM | > 1000 nM | > 1000 nM | > 1000 nM | > 1000 nM | > 1000 nM | > 1000 nM | > 1000 nM | > 1000 nM | > 1000 nM | IC50 (A549): > 1000 nM; IC50 (HCT116): > 1000 nM; IC50 (HGC27): > 1000 nM; IC50 (HEP2): > 1000 nM; IC50 (SW579): > 1000 nM
CCOCc1ccc(C)c(Nc2ncc(-c3ccc(N4CCNC4=O)nc3)o2)c1 [Example 055, 1-(5-(2-((5-(ethoxymethyl)-2-methylphenyl)amino)oxazol-5-yl)pyridin-2-yl)imidazolidin-2-one] | > 1000 nM | > 1000 nM | > 1000 nM | ≤ 100 nM | > 1000 nM | > 1000 nM | > 1000 nM | ≤ 100 nM | ≤ 100 nM | > 1000 nM | ≤ 100 nM | > 1000 nM | ≤ 100 nM | ≤ 100 nM | > 1000 nM | > 1000 nM | > 1000 nM | > 1000 nM | > 1000 nM | > 1000 nM | IC50 (A549): ≤ 100 nM; IC50 (HCT116): ≤ 100 nM; IC50 (HGC27): 500 to 1000 nM; IC50 (HEP2): ≤ 100 nM; IC50 (SW579): ≤ 100 nM
CCOCc1cc(Nc2ncc(-c3ccc(N4CCNC4=O)cc3)o2)cc(OCCOC)c1 [Example 056, 1-(4-(2-((3-(ethoxymethyl)-5-(2-methoxyethoxy)phenyl)amino)oxazol-5-yl)phenyl)imidazolidin-2-one] | > 1000 nM | > 1000 nM | > 1000 nM | ≤ 100 nM | > 1000 nM | > 1000 nM | > 1000 nM | ≤ 100 nM | ≤ 100 nM | > 1000 nM | ≤ 100 nM | > 1000 nM | ≤ 100 nM | ≤ 100 nM | > 1000 nM | > 1000 nM | > 1000 nM | > 1000 nM | > 1000 nM | 100 to 500 nM | IC50 (A549): > 1000 nM; IC50 (HCT116): > 1000 nM; IC50 (HGC27): > 1000 nM; IC50 (HEP2): ≤ 100 nM; IC50 (SW579): ≤ 100 nM
